Read-outs that look alike come from different tables or passages of the source.
Key:
Assay in all cases: microbe, parasite or virus in culture
Format in all cases: cell-based
[1] = system: HCV 1b RLuc cells (dicistronic genotype 1b Con1 replicon, RLuc reporter); conditions: Hepatitis C virus, read-out: 1b (nM)
Description: (§1) Evaluation of cell-based anti-HCV activity: Antiviral potency (EC50) was determined using a Renilla luciferase (RLuc)-based HCV replicon reporter assay. To perform the assay for genotype 1 and 2a JFH-1, HCV 1b RLuc cells (harboring a dicistronic genotype 1b Con1 replicon that encodes a RLuc reporter), or HCV 1a RLuc cells (harboring a dicistronic genotype 1a H77 replicon that encodes a RLuc reporter), or HCV 2a JFH-1 Rluc cells (harboring a dicistronic genotype 2a JFH-1 replicon that encodes a RLuc reporter) were dispensed into 384-well plates. To perform the assay for genotype 2a (with M31 present) or 2b, HCV 2a Rluc or 2b Rluc cells (both with M31 present) harboring a dicistronic NS5A chimeric genotype 2a JFH-1 replicon that encodes a RLuc reporter and either genotype 2a J6 strain NS5A gene or genotype 2b MD2b-1 NS5A gene (based on Los Alamos HCV database isolates, both with M31 present) respectively, were dispensed into 384-well plates. To perform the assay for genotype 3 and 4, HCV 3a RLuc or 4a Rluc cells harboring a dicistronic NS5A chimeric genotype 1b Con1 replicon that encodes a RLuc reporter and either a consensus genotype 3a NS5A gene or genotype 4a NS5A gene (based on Los Alamos HCV database isolates) respectively, were dispensed into 384-well plates. Compounds were re-suspended in DMSO at a concentration of 10 mM and serially diluted in DMSO either manually or using an automated pipeting instrument. Serially diluted compounds were mixed with cell culture media and added to the seeded cells. […] 72 hours later, cells were lysed and Renilla luciferase activity quantified as recommended by the manufacturer (Promega-Madison, Wis.). Non-linear regression was performed to calculate EC50 values.

[2] = system: HCV 1a RLuc cells (dicistronic genotype 1a H77 replicon, RLuc reporter); conditions: genotype 1a H77 replicon, read-out: 1a
Description: as §1

[3] = system: HCV 2a JFH-1 Rluc cells (dicistronic genotype 2a JFH-1 replicon, RLuc reporter); conditions: genotype 2a JFH-1 replicon, read-out: 2a JFH
Description: as §1

[4] = system: HCV 3a RLuc cells (NS5A chimeric genotype 1b Con1 replicon with consensus genotype 3a NS5A gene)
Description: as §1

[5] = Hepatitis C virus, 72 h, Table 2, 72 hours
[6] = Hepatitis C virus, read-out: 3a, Table 2, genotype 3a NS5A chimeric replicon
[7] = Hepatitis C virus, RLuc reporter
[8] = Hepatitis C virus, read-out: 3a, genotype 3a NS5A chimeric 1b Con1 replicon

Structure (SMILES) | EC50 ([1]; 72 h) | EC50 [2, 5] | EC50 [3, 5] | EC50 [4, 6] | EC50 [1] | EC50 [2, 7] | EC50 [3, 7] | EC50 [4, 8] | further results
COC(=O)N[C@H](C(=O)N1CC2(CC2)C[C@H]1c1ncc(-c2ccc3c(c2)C(F)(F)c2cc(-c4cnc([C@@H]5[C@H]6CC[C@H](C6)N5C(=O)[C@H](NC(=O)OC)c5ccccc5)[nH]4)ccc2-3)[nH]1)C(C)C [Example 37] | 0.004 nM | 1 to 999 pM | 1000 to 44000 pM | 1 to 990 pM |  |  |  |  | 
COC(=O)N[C@H](C(=O)N1CC2(C[C@H]1c1ncc(-c3ccc4c(c3)C(F)(F)c3cc(-c5ccc6nc(C7[C@H]8CC[C@H](C8)N7C(=O)[C@@H](NC(=O)OC)C(C)C)[nH]c6c5)ccc3-4)[nH]1)OCCO2)C(C)C (stereo partly drawn) [Example 38] | 0.003 nM | 1 to 999 pM | 1000 to 44000 pM | > 5000 pM |  |  |  |  | 
COC(=O)N[C@H](C(=O)N1[C@@H]2CC[C@@H](C2)[C@H]1c1ncc(-c2ccc(-c3ccc4c(ccc5nc([C@@H]6CCCN6C(=O)[C@@H](NC(=O)OC)C6CCOCC6)[nH]c54)c3)cc2)[nH]1)C(C)C [Example 82] | 0.042 nM | 1 to 999 pM | 1 to 999 pM | 1 to 990 pM |  |  |  |  | 
COC(=O)NC(C(=O)N1CC2(C[C@H]1c1nc3c([nH]1)-c1ccc(-c4ccc5c(ccc6nc([C@@H]7CCCN7C(=O)[C@@H](NC(=O)OC)C(C)C)[nH]c65)c4)cc1CC3)OCCO2)C1CCOCC1 (stereo partly drawn) [Example 87] | 0.163 nM | 1 to 999 pM | 1 to 999 pM | 1 to 990 pM |  |  |  |  | 
COC(=O)N[C@H](C(=O)N1CCC[C@H]1c1ncc(-c2ccc(-c3ccc4cc(-c5cnc([C@@H]6CCCN6C(=O)[C@@H](NC(=O)OC)C(C)C)[nH]5)ccc4c3)cc2)[nH]1)c1ccccc1Cl [Example 103] |  |  |  |  | 0.007 nM | 1 to 999 pM | 1 to 999 pM | 1 to 990 pM | 
COC(=O)NC(C(=O)N1CCC[C@H]1c1ncc(-c2ccc(-c3ccc4cc(-c5cnc([C@@H]6CCCN6C(=O)[C@@H](NC(=O)OC)C(C)C)[nH]5)ccc4c3)cc2)[nH]1)c1ccccc1Cl (stereo partly drawn) [Example 104] |  |  |  |  | 0.007 nM | 1 to 999 pM | 1 to 999 pM | 1 to 990 pM | 
COC(=O)N[C@H](C(=O)N1CCC[C@H]1c1ncc(-c2ccc(-c3ccc4cc(-c5cnc([C@@H]6CCCN6C(=O)[C@@H](NC(=O)OC)C(C)C)[nH]5)ccc4c3)cc2)[nH]1)c1ccccc1OC [Example 105] |  |  |  |  | 0.042 nM | 1000 to 44000 pM | 1000 to 44000 pM | 1000 to 4990 pM | 
COC(=O)N[C@H](C(=O)N1CCC[C@H]1c1ncc(-c2ccc3cc(-c4ccc(-c5cnc([C@@H]6C[C@@H](F)CN6C(=O)[C@H](NC(=O)OC)c6ccccc6)[nH]5)cc4)ccc3c2)[nH]1)C(C)C [Example 140] |  |  |  |  |  |  |  |  | EC50 ([2]; RLuc reporter): 1 to 999 pM; EC50 ([4]; read-out: 3a, genotype 3a NS5A chimeric 1b Con1 replicon): 1 to 990 pM
COC(=O)N[C@H](C(=O)N1CCC[C@H]1c1ncc(-c2ccc3cc(-c4ccc(-c5cnc([C@@H]6CCCN6C(=O)[C@H](NC(=O)OC(C)(C)C)c6ccccc6)[nH]5)cc4)ccc3c2)[nH]1)C(C)C [Example 186] |  |  |  |  | 0.004 nM | 1 to 999 pM | 1 to 999 pM |  | 
COC(=O)N[C@H](C(=O)N1CCC[C@H]1c1ncc(-c2ccc3c(c2)CCc2cc(-c4cnc([C@@H]5CCCN5C(=O)C(c5ccccc5)N(C)C)[nH]4)ccc2-3)[nH]1)C(C)C (stereo partly drawn) [Example 190] |  |  |  |  |  |  |  | 1 to 990 pM | 
COC(=O)NC(C(=O)N1C[C@H](C)C[C@H]1c1ncc(-c2ccc(-c3ccc4cc(-c5cnc([C@@H]6CCCN6C(=O)[C@@H](NC(=O)OC)C6CCOCC6)[nH]5)ccc4c3)cc2)[nH]1)c1cnccn1 (stereo partly drawn) [Example 254] |  |  |  |  | 0.077 nM | 1 to 999 pM | 1 to 999 pM |  | 
COC(=O)NC(C(=O)N1C[C@H](C)C[C@H]1c1ncc(-c2ccc(-c3ccc4cc(-c5cnc([C@@H]6CCCN6C(=O)[C@@H](NC(=O)OC)C(C)C)[nH]5)ccc4c3)cc2)[nH]1)c1cnccn1 (stereo partly drawn) [Example 255] |  |  |  |  | 0.015 nM | 1 to 999 pM | 1000 to 44000 pM |  | 
COC(=O)N[C@H](C(=O)N1CCC[C@H]1c1ncc(-c2ccc3cc(-c4ccc(-c5cnc([C@@H]6CCCN6C(=O)[C@@H](NC(=O)OCc6ccccc6)C6CCSCC6)[nH]5)cc4)ccc3c2)[nH]1)C(C)C [Example 276] |  |  |  |  |  |  |  |  | EC50 ([2]; RLuc reporter): > 44000 pM; EC50 ([3]; RLuc reporter): > 44000 pM

Source: patent US10344019B2 (priority 2010, dated 2019)
